{"source": "patent US8193225B2", "about": "“Isoxazole amides, derivatives and methods of chemical induction of neurogenesis” (priority 2006, dated 2012)", "key": {"[1]": {"test_system": "NMDA receptor 1-(NR1) luciferase", "assay": "NMDA receptor 1 (NR1)-luciferase reporter in BTSCs", "format": "cell-based, human", "settings": "after 24 hours, compared to vehicle", "experimental": "CD133+ glioblastoma brain tumor stem cells (BTSCs) from an explanted human tumor specimen were treated with 20 μM Isx-9 (FIG. 9C) or vol/vol DMSO (vehicle) control (FIG. 9B)."}, "[2]": {"test_system": "adult mouse whole brain (MWB) neural progenitor cells", "assay": "neuronal differentiation of adult mouse whole brain (MWB) neural progenitor cells", "format": "cell-based", "settings": "4 d cultures", "experimental": "(§1) Neural stem cell culture, in vitro differentiation, and CaMK inhibitor studies. The hippocampal neural stem/progenitor (NSC) line used in this study (HCN cells) were originally isolated from adult (8-10 wks old) female Fisher 344 rats and have been characterized previously (Gage et al., 1995; Palmer et al., 1997). HCN cells were cultured in DMEM:F12 (Omega Scientific) with N2 supplement (Invitrogen) and basic fibroblast growth factor (20 ng/ml FGF-2) (PeproTech). The mouse whole brain neural stem/progenitors (MWB) were derived from adult (8-10 wks old) C57BL/6 mice that have been characterized previously (Ray and Gage, 2006). The P19CL6 cells is a sub-line of P19EC cells, originally generated by the late Dr. Habara-Ohkubo (Habara-Ohkubo, 1996), were grown in MEM-α (Invitrogen) containing 10% fetal bovine serum (Omega). HCN cells or MWB neural progenitors were trypsinized and plated into N2 medium (Invitrogen) containing FGF-2 (HCN cells) or FGF-2/EGF/heparin (MWB) overnight, and switched to fresh N2 medium without FGF-2 and Isx-9 (20 μM for HCN cells and 5 μM for MWB) was added for 4 d. To test if Isx-9 could block competing astrocyte or oligodendrocyte differentiation, standard gliogenic conditions were used as described previously (Hsieh et al., 2004). […]"}, "[3]": {"test_system": "RFP-labeled human CD133(+) BTSCs", "assay": "transplantation of pre-treated RFP-labeled BTSCs into striatum of NOD/scid mice", "format": "in vivo", "experimental": "BTSC transplantation was performed by stereotactic surgery into the left striatum (coordinates from Bregma AP −0 mm, ML +2.5 mm, DV −3.5 mm) with a 33-gauge Hamilton syringe at a flow rate of 30,000 cells/10 minutes."}, "[4]": {"test_system": "gluR2-luc", "assay": "gluR2-luciferase reporter gene assay in HCN cells", "format": "cell-based, rat"}, "[5]": {"test_system": "HDAC5", "assay": "protein blotting of phospho-HDAC5, HDAC4 and phospho-CaMKII in HCN cells", "format": "cell-based, rat", "settings": "Isx/Isx-9-treated HCNs, 1-2 d"}, "[6]": {"test_system": "MEF2 reporter gene (3XMRE-luc)", "assay": "MEF2 reporter gene (3XMRE-luc) assay in HCN cells", "format": "cell-based, rat", "settings": "HCN cells/NPCs, versus vehicle"}, "[7]": {"test_system": "P19CL6 cells", "assay": "neuronal differentiation of P19CL6 cells", "format": "cell-based, mouse", "settings": "4 d cultures", "experimental": "as §1"}}, "note": "“Also recorded” adds a separate entry of the source."}
{"compound": "O=C(NC1CC1)c1cc(-c2cccs2)on1", "note": "[Isx-9, N-cyclopropyl-5-(thiophen-2-yl)isoxazole-3-carboxamide]", "values": [{"measurement": "activation of NR1-luciferase in BTSCs", "setting": "[1]", "result": "Dose-dependent activation"}, {"measurement": "neuronal differentiation of MWB neural progenitors", "setting": "[2]", "result": "promotes neuronal differentiation"}, {"measurement": "tumor-initiating ability of BTSCs", "setting": "[3]; 7-day exposure in vitro (20 μM) before transplantation", "result": "dramatically reduces tumor-initiating ability"}, {"measurement": "number of RFP-labeled BTSCs in the striatum", "setting": "[3]; after 1 month", "result": "significant reduced the number of RFP-labeled BTSCs in the striatum"}, {"measurement": "increase in gluR2 luciferase reporter", "setting": "[4]", "result": "≥ 8", "unit": "fold"}, {"measurement": "HDAC5 phosphorylation / cytoplasmic phospho-HDAC5", "setting": "[5]", "result": "Increased HDAC5 phosphorylation over time; also recorded: Accumulation of phospho-HDAC5 in the cytoplasm; also recorded: cytoplasmic enrichment of phospho-HDAC5"}, {"measurement": "activation of MEF2 reporter gene (3XMRE-luc) / MEF2 promoter", "setting": "[6]", "result": "Dose-dependent activation"}, {"measurement": "neuronal differentiation of P19CL6 / P19 embryonal carcinoma cells", "setting": "[7]", "result": "promotes neuronal differentiation"}]}
